# Test results as given in patent publication US7495028B2, “R-bambuterol, its preparation and therapeutic uses” (priority 2002, dated 2009).
# Columns and labels:
# [1] = test system: conscious guinea pigs exposed to aerosol histamine; experiment: Protection against histamine-evoked asthma in conscious guinea pigs; type: in vivo, guinea pig; details: for Collapsed n: 8 animals; for % collapse / Latency time of collapse: dose-response, four hours before exposure
# Protocol: Test methods: Guinea pigs (Dunki-Hartley strain, 190±30 g) were fasted overnight but given water ad libidum. The animals were restrained individually in a glass chamber and exposed to aerosol histamine generated by a nebulizer from a 0.2% aqueous solution of histamine under constant pressure at dose of 0.5 ml/min for a period of 15 sec. The animal was removed from the chamber, and its behavior was monitored. A sign of collapse and the latency time from exposure to collapse were recorded. Only the animals with latency time less than 120 sec, as an indication of sensitive to histamine, were chosen for later experiments. The animals chosen were allowed to recover completly by resting for 24 hours before experiments. Test compounds and racemic bambuterol hydrochloride were dissolved in saline.
# Time course of the effect of test compounds: R-Bambuterol hydrochloride or racemic bambuterol hydrochloride at 2, 4 and 8 mg/kg, and vehicle alone, were administered to the guinea pigs orally via a stomach tube. Exposure of treated animals to aerosol histamine (as above) was done at 1, 4 and 24 hours after treatment. For each experimental group, there were a total of 8 animals with equal number of both sexes, and no repeated exposure was made for individual experimental animals.
# Study of dose-response of test compounds: Four hours before the exposure to aerosol histamine, animals were randomized into groups (n=8, equal male and female), and given R-bambuterol hydrochloride or racemic bambuterol in doses of 0.25, 0.5, 1.0, 2.0, 4.0 and 8.0 mg/kg, and vehicle control, orally via a stomach tube. The numbers of collapsed animal as a result of asthmatic reaction to aerosol histamine were counted, and the latency times were recorded. Both of these parameters were used as quantitative measurements of the protective effects of the treatments on bronchospasm evoked by aerosol histamine.
# [2] = Serum concentration of active parent form (terbutaline) after oral dosing; type: in vivo, guinea pig; details: guinea pigs, 8 mg/kg oral, four hours later
# Protocol: Based on the pharmacokinetic studies of racemic bambuterol hydrochloride, about 50% of absorbed bambuterol is hydrolyzed to terbutaline, the active-parent form, in plasma. There is little cholinesterase in the lung strip preparation, so neither the test compound nor racemic bambuterol has significant effects. In order to test the compound of invention in vitro on isolated guinea-pig lung tissue, R-bambuterol and racemic bambuterol were administrated orally to guinea pigs at a dose of 8 mg/kg. Four hours later, blood was collected from the animals, and the serum containing the active parent form of the test compounds were prepared. The concentration of the active parent form, i.e. terbutaline, in serum measured using BPLC, was 64-70 ng/ml in the animal treated with R-bambuterol and 62-69 ng/ml in the animal treated with racemic bambuterol. The serum containing the active form of test compound was then added into the organ in a certain volume, so that the final concentration of the active forms of test compounds was 0.25 ng/ml in the organ bath. Concentration-response relationships were obtained using a cumulative dose schedule by adding the same volume of the serum into the organ bath. The test using the serum containing the active form of racemic bambuterol was done in parallel with the test compound in the same manner as described above.
# rats = experiment: Cardiovascular effects in anesthetized rats; type: in vivo; details: 30 mg/kg intravenously
# Text: Test method: Rats (Sprague Dawley, 250-300 g) were randomized into two groups (n=6, equal sexes). After anesthesia, plastic tubing was introduced into a carotid artery of each animal and connected to pressure transducers to record mean artery pressure (MBP) and heart rate (HR). Another tube was introduced into the left ventricular chamber via the another carotid artery and connected to a pressure transducer. Left ventricular systolic pressure (LVSP) and the first order of differential of LVSP (dp/dt) as an index for inotropic effects were recorded. R-Bambuterol and racemic bambuterol hydrochloride were dissolved in saline and administrated intravenously at 30 mg/kg to each animal. The HR, MBP and Max dp/dt were measured before treatment (control) and after the treatments when the maximum response occurred, and 20 min after treatment as indication of recovery.
smiles,measurement,setting,value
"CN(C)C(=O)Oc1cc(OC(=O)N(C)C)cc(C(O)CNC(C)(C)C)c1 (centres unmarked) [RS-bambuterol, bambuterol]",Collapsed %,"[1]; 2 mg/kg oral, 1st Hour",75.0%
same,Latency,"[1]; 2 mg/kg oral, 1st Hour",168 ± 61 s
same,Collapsed n,"[1]; 2 mg/kg oral, 1st Hour",6.0
same,Collapsed %,"[1]; 2 mg/kg oral, 4th Hour",50.0%
same,Latency,"[1]; 2 mg/kg oral, 4th Hour",227 ± 56 s
same,Collapsed n,"[1]; 2 mg/kg oral, 4th Hour",4.0
same,Collapsed %,"[1]; 2 mg/kg oral, 24th Hour",50.0%
same,Latency,"[1]; 2 mg/kg oral, 24th Hour",208 ± 65 s
same,Collapsed n,"[1]; 2 mg/kg oral, 24th Hour",5.0
same,Collapsed %,"[1]; 4 mg/kg oral, 1st Hour",62.5%
same,Latency,"[1]; 4 mg/kg oral, 1st Hour",199 ± 63 s
same,Collapsed n,"[1]; 4 mg/kg oral, 1st Hour",5.0
same,Collapsed %,"[1]; 4 mg/kg oral, 4th Hour",25.0%
same,Latency,"[1]; 4 mg/kg oral, 4th Hour",299 ± 51 s
same,Collapsed n,"[1]; 4 mg/kg oral, 4th Hour",2.0
same,Collapsed %,"[1]; 4 mg/kg oral, 24th Hour",37.5%
same,Latency,"[1]; 4 mg/kg oral, 24th Hour",287 ± 57 s
same,Collapsed n,"[1]; 4 mg/kg oral, 24th Hour",3.0
same,Collapsed %,"[1]; 8 mg/kg oral, 1st Hour",37.5%
same,Latency,"[1]; 8 mg/kg oral, 1st Hour",260 ± 66 s
same,Collapsed n,"[1]; 8 mg/kg oral, 1st Hour",3.0
same,Collapsed %,"[1]; 8 mg/kg oral, 4th Hour",0.0%
same,Latency,"[1]; 8 mg/kg oral, 4th Hour",>360 s
same,Collapsed n,"[1]; 8 mg/kg oral, 4th Hour",0.0
same,Collapsed %,"[1]; 8 mg/kg oral, 24th Hour",25.0%
same,Latency,"[1]; 8 mg/kg oral, 24th Hour",303 ± 54 s
same,Collapsed n,"[1]; 8 mg/kg oral, 24th Hour",2.0
same,% collapse,[1]; 0.25 mg/kg oral,100%
same,Latency time of collapse,[1]; 0.25 mg/kg oral,61 s
same,% collapse,[1]; 0.5 mg/kg oral,87.5%
same,Latency time of collapse,[1]; 0.5 mg/kg oral,114 s
same,% collapse,[1]; 1 mg/kg oral,75%
same,Latency time of collapse,[1]; 1 mg/kg oral,151 s
same,% collapse,[1]; 2 mg/kg oral,50%
same,Latency time of collapse,[1]; 2 mg/kg oral,227 s
same,% collapse,[1]; 4 mg/kg oral,25%
same,Latency time of collapse,[1]; 4 mg/kg oral,299 s
same,% collapse,[1]; 8 mg/kg oral,0%
same,Latency time of collapse,[1]; 8 mg/kg oral,>360 s
same,Duration of protective effects,[1]; oral 2 to 8 mg/kg,24 h
same,Onset of protective effects after administration,[1]; oral 2 to 8 mg/kg,one
same,Time of maximum protective effects after administration,[1]; oral 2 to 8 mg/kg,4 h
same,Dose at which full protective effect was seen,"[1]; oral, collapse after aerosol histamine",8 mg/kg
same,ED50 (protection against collapse),"[1]; oral, four hours before aerosol histamine",1.68 mg/kg
same,Dose at which maximum effects on latency were seen,"[1]; oral, latency time to collapse",8 mg/kg
same,"Concentration of the active parent form, terbutaline, in serum",[2],62 to 69 ng/mL
same,"MBP 20 min after Δ, % of control",rats; 20 min after treatment,8.3%
same,"MBP, 20 min after Δ",rats; 20 min after treatment,1.1 ± 0.4 Kpa
same,"Maxdp/dt 20 min after Δ, % of control",rats; 20 min after treatment,4.8%
same,"Maxdp/dt, 20 min after Δ",rats; 20 min after treatment,13 ± 3.8 Kpa/sec
same,"HR 20 min after Δ, % of Control","rats; 20 min after treatment, listed as Rac-Bambuterol",9.5%
same,"HR 20 min after Δ, % of Control","rats; 20 min after treatment, listed as racemic bambuterol hydrochloride",9.5%
same,"HR Treatment Δ, % of Control",rats; maximum response,20.6%
same,"HR, Treatment Δ",rats; maximum response,85.8 ± 5 Beat/min
same,"MBP Treatment Δ, % of control",rats; maximum response,31.6%
same,"MBP, Treatment Δ",rats; maximum response,4.2 ± 0.5 Kpa
same,"Maxdp/dt, Treatment Δ",rats; maximum response,65.4 ± 9 Kpa/sec
same,"Maxdp/dt Treatment Δ, % of control","rats; maximum response, listed as Rac-Bambuterol",24.4%
same,"Maxdp/dt Treatment Δ, % of control","rats; maximum response, listed as racemic bambuterol",24.4%
